Earlier results on two molecules are cited in patent US11219614B2, “Combination cancer therapy with pentaaza macrocyclic ring complex and ascorbate compound” (Galera Labs, LLC, priority 2016, dated 2022).

The structures appear in SMILES notation.

In data set [1] the test system is experimental model of colitis. Particulars: rats; cited from earlier work.
Data set [2] deals with radiation-induced oral mucositis. Particulars: hamster, acute radiation-induced oral mucositis; cited from earlier work.
Data set [3] has as its system lethal total body irradiation. Particulars: adult mice; cited from earlier work.
The next data set concerns inflammation. Particulars: rat model; cited from earlier work.
Data set [4] deals with collagen-induced arthritis. Particulars: rat; cited from earlier work.
For data set [5] the following is noted: pH 7, absence of catalytic metals; cited from earlier work.

Take `[Cl-].[Cl-].[Mn+2].c1cc2nc(c1)CN[C@@H]1CCCC[C@H]1NCCN[C@@H]1CCCC[C@H]1NC2` [GC4403]: the “injury to the colon” value in data set [1] is “very significantly reduce the injury to the colon”. For the same molecule, the radiation damage entry in data set [2] and in data set [3] was “attenuate the radiation damage” in each case. Also, in the data set with inflammation, the inflammation entry is “inhibit inflammation”. Besides, the joint disease result in data set [4] is “prevent joint disease”.
Turning to `O=C1O[C@H]([C@@H](O)CO)C(O)=C1O` [ascorbic acid, (5R)-[(1S)-1,2-Dihydroxyethyl]-3,4-dihydroxyfuran-2(5H)-one], the stability of solution result in data set [5] is on record as “stable at pH 7”.
